In ChEMBL document CHEMBL5727488, “3-indol substituted derivatives, pharmaceutical compositions and methods for use” (2020):

Biological target: Tryptophan 2,3-dioxygenase (Homo sapiens, UniProt P48775)
Test: Assay for TDO2 enzymatic activity determination: To measure the TDO2 activity, the procedure described in Dolusic et al. J. Med. Chem.; 2011, 54, […] was adapted: the reaction mixture contained (final concentrations) potassium phosphate buffer (50 mM, pH 7.5), ascorbic acid (0.25 M), methylene blue (0.125 μM), catalase (40 units/mL, from bovine liver, Sigma), and human recombinant TDO2 enzyme (prepared as described in Dolusic et al. J. Med. Chem.; 2011, 54, 5320-5334; 0.9 μg) without or with the compounds of the present invention at the indicated concentrations (total volume 112.5 μL). The reaction was initiated by the addition of 37.5 μL of L-Trp (final concentration 1 mM) at room temperature. The reaction was conducted at room temperature during one hour and stopped by the addition of 30 μL of 30% (w/v) trichloroacetic acid.To convert N-formylkynurenine into kynurenine, the reaction mixture was incubated at 65° C. for 30 min. Then 150 μL of the reaction mixture was mixed with 120 μL of 2.5% (w/v) 4-(dimethylamino)-benzaldehyde in acetic acid and incubated for 5 min at room temperature. Kynurenine concentrations were determined by measuring the absorbance at 480 nm. A standard curve was made with pure kynurenine. The TDO activity was measured as described above using ten serial concentrations of the compounds of the present invention. […]

Tryptophan 2,3-dioxygenase, sequence (P48775 whole entry): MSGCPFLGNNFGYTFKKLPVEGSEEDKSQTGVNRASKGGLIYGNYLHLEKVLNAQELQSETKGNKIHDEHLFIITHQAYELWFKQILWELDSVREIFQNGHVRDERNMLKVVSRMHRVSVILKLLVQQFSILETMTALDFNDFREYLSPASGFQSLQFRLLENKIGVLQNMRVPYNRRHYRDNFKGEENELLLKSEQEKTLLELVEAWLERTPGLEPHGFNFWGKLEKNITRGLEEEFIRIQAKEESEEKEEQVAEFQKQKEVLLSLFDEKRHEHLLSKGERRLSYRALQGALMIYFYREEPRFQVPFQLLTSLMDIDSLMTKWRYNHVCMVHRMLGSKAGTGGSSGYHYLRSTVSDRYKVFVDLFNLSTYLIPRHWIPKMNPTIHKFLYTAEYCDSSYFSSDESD

Q: For `C[C@@H](CO)NS(=O)(=O)c1ccc(-c2c[nH]c3cc(F)ccc23)cc1`, which IC50 is on record?
A: The IC50 was 840 nM.
